No end group written: not given here.
Test: Plasma pharmacokinetics of ALM201 in Phase I patients (validated LC-MS/MS, Phoenix WinNonlin)
Conditions: for Tmax: median, plasma LC-MS/MS; for Half-life: SC, day 1 cycle 1

IRQQPRDPPTETLELEVSPDPAS [ALM201]
level at 2 h (human, plasma, sc, 300 mg, Plasma concentration, geometric mean (CV%), 300 mg SC, day 1 cycle 1, 2 h after dosing, n = 3, LC-MS/MS): 2310 ng/mL
level at 3 h (human, plasma, sc, 300 mg, Plasma concentration, geometric mean (CV%), 300 mg SC, day 1 cycle 1, 3 h after dosing, n = 3, LC-MS/MS): 2120 ng/mL
level at 4 h (human, plasma, sc, 300 mg, Plasma concentration, geometric mean (CV%), 300 mg SC, day 1 cycle 1, 4 h after dosing, n = 3, LC-MS/MS): 1600 ng/mL
level at 5 h (human, plasma, sc, 300 mg, Plasma concentration, geometric mean (CV%), 300 mg SC, day 1 cycle 1, 5 h after dosing, n = 3, LC-MS/MS): 1280 ng/mL
level at 6 h (human, plasma, sc, 300 mg, Plasma concentration, geometric mean (CV%), 300 mg SC, day 1 cycle 1, 6 h after dosing, n = 3, LC-MS/MS): 901 ng/mL
level at 7 h (human, plasma, sc, 300 mg, Plasma concentration, geometric mean (CV%), 300 mg SC, day 1 cycle 1, 7 h after dosing, n = 3, LC-MS/MS): 703 ng/mL
level at 8 h (human, plasma, sc, 300 mg, Plasma concentration, geometric mean (CV%), 300 mg SC, day 1 cycle 1, 8 h after dosing, n = 3, LC-MS/MS): 420 ng/mL
level at 0.5 h (human, plasma, sc, 300 mg, Plasma concentration, geometric mean (CV%), 300 mg SC, day 3 cycle 1, 0.5 h after dosing, n = 3, LC-MS/MS): 1970 ng/mL
level at 1 h (human, plasma, sc, 300 mg, Plasma concentration, geometric mean (CV%), 300 mg SC, day 3 cycle 1, 1 h after dosing, n = 3, LC-MS/MS): 2590 ng/mL
level at 1.5 h (human, plasma, sc, 300 mg, Plasma concentration, geometric mean (CV%), 300 mg SC, day 3 cycle 1, 1.5 h after dosing, n = 2 values (CV NC), LC-MS/MS): 1950 ng/mL
level at 2 h (human, plasma, sc, 300 mg, Plasma concentration, geometric mean (CV%), 300 mg SC, day 3 cycle 1, 2 h after dosing, n = 2 values (CV NC), LC-MS/MS): 2450 ng/mL
level at 4.5 h (human, plasma, sc, 300 mg, Plasma concentration, geometric mean (CV%), 300 mg SC, day 3 cycle 1, 4.5 h after dosing, n = 3, LC-MS/MS): 1740 ng/mL
level at 7 h (human, plasma, sc, 300 mg, Plasma concentration, geometric mean (CV%), 300 mg SC, day 3 cycle 1, 7 h after dosing, n = 3, LC-MS/MS): 852 ng/mL
level at 0.5 h (human, plasma, sc, 300 mg, Plasma concentration, geometric mean (CV%), 300 mg SC, day 18 cycle 1, 0.5 h after dosing, n = 3, LC-MS/MS): 2290 ng/mL
level at 1 h (human, plasma, sc, 300 mg, Plasma concentration, geometric mean (CV%), 300 mg SC, day 18 cycle 1, 1 h after dosing, n = 3, LC-MS/MS): 2410 ng/mL
level at 1.5 h (human, plasma, sc, 300 mg, Plasma concentration, geometric mean (CV%), 300 mg SC, day 18 cycle 1, 1.5 h after dosing, n = 3, LC-MS/MS): 2600 ng/mL
level at 2 h (human, plasma, sc, 300 mg, Plasma concentration, geometric mean (CV%), 300 mg SC, day 18 cycle 1, 2 h after dosing, n = 3, LC-MS/MS): 2520 ng/mL
level at 4.5 h (human, plasma, sc, 300 mg, Plasma concentration, geometric mean (CV%), 300 mg SC, day 18 cycle 1, 4.5 h after dosing, n = 3, LC-MS/MS): 1370 ng/mL
level at 7 h (human, plasma, sc, 300 mg, Plasma concentration, geometric mean (CV%), 300 mg SC, day 18 cycle 1, 7 h after dosing, n = 3, LC-MS/MS): 767 ng/mL
level at 0.5 h (human, plasma, sc, 300 mg, Plasma concentration, geometric mean (CV%), 300 mg SC, day 18 cycle 2, 0.5 h after dosing, n = 3, LC-MS/MS): 1990 ng/mL
level at 1 h (human, plasma, sc, 300 mg, Plasma concentration, geometric mean (CV%), 300 mg SC, day 18 cycle 2, 1 h after dosing, n = 3, LC-MS/MS): 2280 ng/mL
level at 1.5 h (human, plasma, sc, 300 mg, Plasma concentration, geometric mean (CV%), 300 mg SC, day 18 cycle 2, 1.5 h after dosing, n = 3, LC-MS/MS): 2380 ng/mL
level at 2 h (human, plasma, sc, 300 mg, Plasma concentration, geometric mean (CV%), 300 mg SC, day 18 cycle 2, 2 h after dosing, n = 3, LC-MS/MS): 2540 ng/mL
level at 4.5 h (human, plasma, sc, 300 mg, Plasma concentration, geometric mean (CV%), 300 mg SC, day 18 cycle 2, samples collected at 4.5 hours, n = 3, LC-MS/MS): 720 ng/mL
level at 7 h (human, plasma, sc, 300 mg, Plasma concentration, geometric mean (CV%), 300 mg SC, day 18 cycle 2, samples collected at 7.0 hours, n = 3, LC-MS/MS): 485 ng/mL
level at 0.5 h (human, plasma, sc, 300 mg, Plasma concentration, geometric mean (CV%), 300 mg SC, day 18 cycle 4, 0.5 h after dosing, n = 1, LC-MS/MS): 1670 ng/mL
level at 1 h (human, plasma, sc, 300 mg, Plasma concentration, geometric mean (CV%), 300 mg SC, day 18 cycle 4, 1 h after dosing, n = 1, LC-MS/MS): 2140 ng/mL
level at 1.5 h (human, plasma, sc, 300 mg, Plasma concentration, geometric mean (CV%), 300 mg SC, day 18 cycle 4, 1.5 h after dosing, n = 1, LC-MS/MS): 1990 ng/mL
level at 2 h (human, plasma, sc, 300 mg, Plasma concentration, geometric mean (CV%), 300 mg SC, day 18 cycle 4, 2 h after dosing, n = 1, LC-MS/MS): 1990 ng/mL
level at 4.5 h (human, plasma, sc, 300 mg, Plasma concentration, geometric mean (CV%), 300 mg SC, day 18 cycle 4, sample collected at 4.5 hours, n = 1, LC-MS/MS): 854 ng/mL
level at 7 h (human, plasma, sc, 300 mg, Plasma concentration, geometric mean (CV%), 300 mg SC, day 18 cycle 4, sample collected at 7.0 hours, n = 1, LC-MS/MS): 387 ng/mL
level at 0.5 h (human, plasma, sc, 300 mg, Plasma concentration, geometric mean (CV%), 300 mg SC, day 18 cycle 6, 0.5 h after dosing, n = 1, LC-MS/MS): 3150 ng/mL
level at 1 h (human, plasma, sc, 300 mg, Plasma concentration, geometric mean (CV%), 300 mg SC, day 18 cycle 6, 1 h after dosing, n = 1, LC-MS/MS): 4430 ng/mL
level at 1.5 h (human, plasma, sc, 300 mg, Plasma concentration, geometric mean (CV%), 300 mg SC, day 18 cycle 6, 1.5 h after dosing, n = 1, LC-MS/MS): 5240 ng/mL
level at 2 h (human, plasma, sc, 300 mg, Plasma concentration, geometric mean (CV%), 300 mg SC, day 18 cycle 6, 2 h after dosing, n = 1, LC-MS/MS): 6830 ng/mL
level at 4.5 h (human, plasma, sc, 300 mg, Plasma concentration, geometric mean (CV%), 300 mg SC, day 18 cycle 6, sample collected at 4.5 hours, n = 1, LC-MS/MS): 3600 ng/mL
level at 7 h (human, plasma, sc, 300 mg, Plasma concentration, geometric mean (CV%), 300 mg SC, day 18 cycle 6, sample collected at 7.0 hours, n = 1, LC-MS/MS): 693 ng/mL
Tmax (human, plasma, sc, 300 mg, 300 mg SC, day 1 cycle 1, n = 3): 2 h
Tmax (human, plasma, sc, 300 mg, 300 mg SC, day 3 cycle 1, n = 3): 1.02 h
Tmax (human, plasma, sc, 300 mg, 300 mg SC, day 18 cycle 1, n = 3): 1.5 h
Tmax (human, plasma, sc, 300 mg, 300 mg SC, day 18 cycle 4, n = 1): 1.12 h
Tmax (human, plasma, sc, 300 mg, 300 mg SC, day 18 cycle 6, n = 1): 2.02 h
Half-life (patient 02.002, 80 mg cohort): 1.80 h
Half-life (patient 02.003, 160 mg cohort): 1.50 h
Half-life (patient 03.005, 160 mg cohort): 0.90 h

From article PMC9276671, “A first-in-human Phase I dose-escalation trial of the novel therapeutic peptide, ALM201, demonstrates a favourable safety profile in unselected patients with ovarian cancer and other advanced solid tumours” (British Journal of Cancer, 2022)
